Results from patent US20110143939A1, “QUINOXALIN-2-ONE DERIVATIVES, COMPOSITIONS WHICH PROTECT USEFUL PLANTS AND COMPRISE THESE DERIVATIVES, AND PROCESSES FOR THEIR PREPARATION AND THEIR USE” (Bayer CropScience AG, priority 2004, published 2011).

Row | SMILES | melting point
1 | O=c1c(-c2cccs2)nc2ccccc2n1CC1CCCO1 (centres unmarked) | 123 °C
2 | O=c1[nH]c2cc3c(cc2nc1-c1ccccc1)OC(F)(F)O3 | 291 to 292 °C
3 | Cn1c(=O)c(-c2ccccc2)nc2cc3c(cc21)OC(F)(F)O3 | 165 °C
4 | O=c1c(-c2cccs2)nc2ccccc2n1CC1CCC1 | 103 °C
5 | Cn1c(=S)c(-c2cccs2)nc2ccccc21 | 113 °C
6 | Cl.NCCn1c(=O)c(-c2cccs2)nc2ccccc21 | > 250 °C
7 | CS(=O)(=O)NCCn1c(=O)c(-c2cccs2)nc2ccccc21 | 236 to 237 °C
8 | Nn1c(=O)c(-c2cccs2)nc2ccccc21 | 164 °C
